Experimental data published in US6228382A, “Microbiocidal mixtures” (ETC C.V., priority 1996, dated 2001).
Each block holds one compound with its values, some of them ahead of it.

What was measured:
[1] = Determination of the octanol/water partition coefficients (logPow) by HPLC, OECD guideline 117; format: physicochemical; conditions: rp 18 hplc; HPLC method, RP 18 column, OECD 117; read-out: logPow (octanol/water partition coefficient)
[2] = Determination of the relative leaching rate from house paint (watering with tap water, HPLC of methanol extracts); format: physicochemical
Text: First, 128 parts by weight (PW) of water were initially charged. 11 PW of a 10% strength by weight solution of Calgon N (sodium triphosphate) were subsequently stirred into the water. Thereafter, 2 PW of Tylose MHB 6000 (from Hoechst AG), 3 PW of Additol XW 330 (from Hoechst AG), 4 PW of Agitan 260 (from Munzing-Chemie, Heilbronn), 226 PW of titanium dioxide (for example from Kronos 2065), 375 PW of MOWILITH® DM 771 (about 50%) (from. HOECHST), 84 PW of Omyacarb 5 (from Omya), 84 PW of Micro Mica W1, 38 PW of Micro Talc AT 1 and 20 PW of China Clay D were added and homogenized. 11 PW of white spirit, 8 PW of butyl diglycol acetate and 4 PW of MERGAL® K 9 N (Riedel de Haen) were stirred into the resulting mixture. The pH of the resulting house paint was 8.8.
The preservatives listed in Table 2 were homogeneously dispersed into the resulting house paint.
The resulting paint sample was in each case drawn out to a film of approximately 150 g/m^2 on paper, using a knife. The paint sample prepared in this manner was subsequently dried at a temperature of 30° C. for 72 hours.
Test samples having a diameter of 5.5 cm were punched out from the paint sample. To simulate leaching by rainwater, these paint-coated test samples were watered with tap water (46.7 1/day/m^2 of paint). Test samples were taken in each case after 24 hours and air-dried for 72 hours.
To determine the microbicide concentration, in each case one specimen was extracted in methanol. The methanol extracts were analysed by HPLC. […]
column: RP-phenyl (Hypersil 5 μ) mobile phase: gradient water/acetonitrile
UV-Detector: 220 nm and 200 nm
Since in each analysis, the substances listed in Table 3 were measured as the area under the HPLC signal, it is possible to relate the leaching rates directly to the known active compounds OITZ and Mctt.

chromatographic logP [1]: 4.14
Structure (SMILES): CCCCCCCCCCn1sccc1=O [DITZ, 2-n-decyl-isothiazolin-3-one]

HPLC area ([2]; 0 h watering): 955.2 arbitrary units
HPLC relative area ([2]; 0 h watering): 1
HPLC area ([2]; 24 h watering): 787.1 arbitrary units
HPLC relative area ([2]; 24 h watering): 0.824
HPLC area ([2]; 48 h watering): 800.2 arbitrary units
HPLC relative area ([2]; 48 h watering): 0.837
HPLC area ([2]; 72 h watering): 677.6 arbitrary units
HPLC relative area ([2]; 72 h watering): 0.708
HPLC area ([2]; 96 h watering): 547.4 arbitrary units
HPLC relative area ([2]; 96 h watering): 0.572
Structure (SMILES): CSc1nc(NC2CC2)nc(NC(C)(C)C)n1 [Mctt, 2-methylthio-4-cyclopropylamino-6-t-butylamino-1,3,5-triazine]

chromatographic logP [1]: 3.51
Structure (SMILES): CCCCCCCCCn1sccc1=O [NITZ, 2-n-nonylisothiazolin-3-one]

Structure (SMILES): CCCCCCCCn1sccc1=O [OITZ, 2-n-octylisothiazolin-3-one]
chromatographic logP [1]: 2.89

chromatographic logP [1]: 4.76
Structure (SMILES): CCCCCCCCCCCn1sccc1=O [compound 11, 2-n-undecylisothiazolin-3-one]

chromatographic logP [1]: 5.36
Structure (SMILES): CCCCCCCCCCCCn1sccc1=O [dodecyl-ITZ, 2-n-dodecylisothiazolin-3-one]
